In brackets after ≈: the same amount, converted by molar mass.
Key:
Assay type in all cases: functional
Shigella flexneri [1] = test: Antimicrobial activity against Shigella flexneri isolate AM13291 by broth microdilution method
Shigella [2] = test: Antimicrobial activity against Shigella isolate DH-13291 by broth microdilution method
Shigella flexneri [3] = test: Antimicrobial activity against Shigella flexneri isolate AM19035 by broth microdilution method
Shigella [4] = test: Antimicrobial activity against Shigella isolate DH-19035 by broth microdilution method
Shigella sonnei [5] = test: Antimicrobial activity against Shigella sonnei isolate AM20369 by broth microdilution method
Shigella [6] = test: Antimicrobial activity against Shigella isolate DH-20369 by broth microdilution method
Shigella sonnei [7] = test: Antimicrobial activity against Shigella sonnei isolate AM22451 by broth microdilution method
Shigella [8] = test: Antimicrobial activity against Shigella isolate DH-22451 by broth microdilution method
Shigella sonnei [9] = test: Antimicrobial activity against Shigella sonnei isolate AM22855 by broth microdilution method
Shigella [10] = test: Antimicrobial activity against Shigella isolate DH-22855 by broth microdilution method
Shigella flexneri [11] = test: Antimicrobial activity against Shigella flexneri isolate AM26336 by broth microdilution method
Shigella [12] = test: Antimicrobial activity against Shigella isolate DH-26336 by broth microdilution method

SMILES | MIC (Shigella flexneri [1]) [µg/mL] | MIC (Shigella [2]) [µg/mL] | MIC (Shigella flexneri [3]) [µg/mL] | MIC (Shigella [4]) [µg/mL] | MIC (Shigella sonnei [5]) [µg/mL] | MIC (Shigella [6]) [µg/mL] | MIC (Shigella sonnei [7]) [µg/mL] | MIC (Shigella [8]) [µg/mL] | MIC (Shigella sonnei [9]) [µg/mL] | MIC (Shigella [10]) [µg/mL] | MIC (Shigella flexneri [11]) [µg/mL] | MIC (Shigella [12]) [µg/mL]
CO/N=C(\C(=O)N[C@@H]1C(=O)N2C(C(=O)O)=C(COC(C)=O)CS[C@H]12)c1csc(N)n1 [CEFOTAXIME] | 8 (≈ 17.6 µM) | 32 (≈ 70.3 µM) | 32 (≈ 70.3 µM) | 64 (≈ 141 µM) | 64 (≈ 141 µM) | 128 (≈ 281 µM) | 64 (≈ 141 µM) | 128 (≈ 281 µM) | 64 (≈ 141 µM) | 64 (≈ 141 µM) | 8 (≈ 17.6 µM) | 64 (≈ 141 µM)
CC(C)(O/N=C(\C(=O)N[C@@H]1C(=O)N2C(C(=O)[O-])=C(C[n+]3ccccc3)CS[C@H]12)c1csc(N)n1)C(=O)O [CEFTAZIDIME] | 0.5 (≈ 0.915 µM) | 2 (≈ 3.66 µM) | 0.5 (≈ 0.915 µM) | 2 (≈ 3.66 µM) | 8 (≈ 14.6 µM) | 16 (≈ 29.3 µM) | 8 (≈ 14.6 µM) | 32 (≈ 58.5 µM) | 8 (≈ 14.6 µM) | 16 (≈ 29.3 µM) | 0.5 (≈ 0.915 µM) | 4 (≈ 7.32 µM)
CO/N=C(\C(=O)N[C@@H]1C(=O)N2C(C(=O)[O-])=C(C[N+]3(C)CCCC3)CS[C@H]12)c1csc(N)n1 [CEFEPIME] | 2 (≈ 4.16 µM) | 4 (≈ 8.32 µM) | 2 (≈ 4.16 µM) | 4 (≈ 8.32 µM) | 8 (≈ 16.6 µM) | 16 (≈ 33.3 µM) | 8 (≈ 16.6 µM) | 16 (≈ 33.3 µM) | 8 (≈ 16.6 µM) | 16 (≈ 33.3 µM) | 2 (≈ 4.16 µM) | 4 (≈ 8.32 µM)
CO/N=C(\C(=O)N[C@@H]1C(=O)N2C(C(=O)O)=C(CSc3nc(=O)c(O)nn3C)CS[C@H]12)c1csc(N)n1 [CEFTRIAXONE] | 16 (≈ 28.9 µM) | 32 (≈ 57.7 µM) | 32 (≈ 57.7 µM) | 32 (≈ 57.7 µM) | 64 (≈ 115 µM) | > 64 | > 64 | > 64 | 64 (≈ 115 µM) | > 64 | 16 (≈ 28.9 µM) | 32 (≈ 57.7 µM)
